# Experimental data as given in US20050180956A1, “SSAO enzyme substrates for vasorelaxation, and methods of use thereof” (priority 2004, published 2005).
# Like-named read-outs stand apart in the source and are kept apart here.
# How the values were obtained:
# [1] = tested on: human radial artery (RA); assay: Vascular ring physiology, isolated human radial artery rings
# [2] = tested on: cGMP level in human LIMA; assay: cGMP ELISA assay in LIMA segments; settings: NE-precontracted LIMA, MA 1 mmol/L, 30-40 min, control 0.128 ± 0.034
# [3] = tested on: cGMP level in human RSV
# [4] = tested on: humans; settings: cited from earlier work
# [5] = target: homogenized rat aortic SSAO activity (Rattus norvegicus, UniProt O08590); settings: read-out: Km for homogenized rat aortic SSAO activity; cited from earlier work
# [6] = target: SSAO of human cerebral microvessels (Homo sapiens, UniProt Q16853); settings: read-out: Km, human cerebral microvessels; cited from earlier work
# [7] = target: SSAO of human umbilical artery (Homo sapiens, UniProt Q16853); settings: read-out: Km, human umbilical artery; cited from earlier work
# [8] = tested on: human left internal mammary artery (LIMA); assay: Vascular ring physiology, isolated human left internal mammary artery rings; settings: for response in HI K+-precontracted LIMA, % of HI K+ tension (contraction): n=9,3,6; for EC50: Homo sapiens; for % Response, contraction (C), LIMA / % Response, relaxation (R), LIMA: NE-precontracted (1 μM) LIMA, 10 min exposure to 1 mmol/L, percentage change of NE-precontraction tension; for effect of pretreatment on MA-induced relaxation: L-NAME 200 μmol/L and/or INDO 100 μmol/L
# [9] = target: T1, SSAO activity in homogenized human LIMA (Homo sapiens, UniProt Q16853); assay: Radiometric SSAO assay (14C-benzylamine), homogenized LIMA; format: biochemical; settings: homogenate preincubated 20 min, 37° C.; n=25
# T1 construct: Blood vessel segments were homogenized in Sorensen's Na^+/K^+-phosphate buffered solution; from tissue; host or cells: human left internal mammary artery (LIMA), supernatant of homogenate
# T1 sequence (Q16853 1-763): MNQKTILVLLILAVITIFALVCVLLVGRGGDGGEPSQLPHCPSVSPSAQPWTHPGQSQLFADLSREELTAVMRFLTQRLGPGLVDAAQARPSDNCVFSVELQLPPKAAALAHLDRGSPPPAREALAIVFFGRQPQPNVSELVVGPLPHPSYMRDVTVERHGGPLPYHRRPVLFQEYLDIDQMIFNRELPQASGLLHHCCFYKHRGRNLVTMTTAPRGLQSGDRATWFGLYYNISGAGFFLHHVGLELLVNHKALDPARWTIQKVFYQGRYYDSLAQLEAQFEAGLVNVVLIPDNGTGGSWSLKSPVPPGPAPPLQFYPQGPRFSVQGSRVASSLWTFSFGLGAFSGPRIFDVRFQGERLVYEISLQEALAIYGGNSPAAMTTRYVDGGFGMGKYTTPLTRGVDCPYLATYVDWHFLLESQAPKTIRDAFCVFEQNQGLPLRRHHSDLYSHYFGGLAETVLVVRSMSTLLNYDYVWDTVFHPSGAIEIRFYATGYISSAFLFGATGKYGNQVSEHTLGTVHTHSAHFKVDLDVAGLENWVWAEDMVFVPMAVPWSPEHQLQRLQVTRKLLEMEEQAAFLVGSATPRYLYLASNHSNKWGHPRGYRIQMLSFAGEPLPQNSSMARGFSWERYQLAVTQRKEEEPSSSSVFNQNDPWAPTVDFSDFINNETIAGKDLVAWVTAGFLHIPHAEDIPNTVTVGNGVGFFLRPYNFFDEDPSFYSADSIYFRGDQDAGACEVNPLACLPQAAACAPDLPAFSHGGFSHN
# [10] = target: T2, SSAO activity in homogenized human RA (Homo sapiens, UniProt Q16853); assay: Radiometric SSAO assay (14C-benzylamine), homogenized RA; format: biochemical; settings: homogenate preincubated 20 min, 37° C.; n=10
# T2 construct: Blood vessel segments were homogenized in Sorensen's Na^+/K^+-phosphate buffered solution; from tissue; host or cells: human radial artery (RA), supernatant of homogenate
# T2 sequence (Q16853 1-763): T1 sequence (Q16853 1-763)
# [11] = target: T3, SSAO activity in homogenized human RSV (Homo sapiens, UniProt Q16853); assay: Radiometric SSAO assay (14C-benzylamine), homogenized RSV; format: biochemical; settings: homogenate preincubated 20 min, 37° C.; n=5
# T3 sequence (Q16853 1-763): T1 sequence (Q16853 1-763)
# [12] = target: T4, SSAO in human saphenous vein (Homo sapiens, UniProt Q16853); settings: read-out: IC50 of SSAO inhibition in human saphenous vein, literature; cited from earlier work
# T4 sequence (Q16853 1-763): T1 sequence (Q16853 1-763)
# [13] = tested on: human left internal mammary artery (LIMA)
# [14] = read-out: Apparent EC50, relaxation (R), LIMA
# [15] = NE-precontracted LIMA, repeated methylamine exposure, n=5
# [16] = read-out: Apparent EC50, contraction (C), LIMA
# Chain of homogenized rat aortic SSAO activity (O08590 whole entry): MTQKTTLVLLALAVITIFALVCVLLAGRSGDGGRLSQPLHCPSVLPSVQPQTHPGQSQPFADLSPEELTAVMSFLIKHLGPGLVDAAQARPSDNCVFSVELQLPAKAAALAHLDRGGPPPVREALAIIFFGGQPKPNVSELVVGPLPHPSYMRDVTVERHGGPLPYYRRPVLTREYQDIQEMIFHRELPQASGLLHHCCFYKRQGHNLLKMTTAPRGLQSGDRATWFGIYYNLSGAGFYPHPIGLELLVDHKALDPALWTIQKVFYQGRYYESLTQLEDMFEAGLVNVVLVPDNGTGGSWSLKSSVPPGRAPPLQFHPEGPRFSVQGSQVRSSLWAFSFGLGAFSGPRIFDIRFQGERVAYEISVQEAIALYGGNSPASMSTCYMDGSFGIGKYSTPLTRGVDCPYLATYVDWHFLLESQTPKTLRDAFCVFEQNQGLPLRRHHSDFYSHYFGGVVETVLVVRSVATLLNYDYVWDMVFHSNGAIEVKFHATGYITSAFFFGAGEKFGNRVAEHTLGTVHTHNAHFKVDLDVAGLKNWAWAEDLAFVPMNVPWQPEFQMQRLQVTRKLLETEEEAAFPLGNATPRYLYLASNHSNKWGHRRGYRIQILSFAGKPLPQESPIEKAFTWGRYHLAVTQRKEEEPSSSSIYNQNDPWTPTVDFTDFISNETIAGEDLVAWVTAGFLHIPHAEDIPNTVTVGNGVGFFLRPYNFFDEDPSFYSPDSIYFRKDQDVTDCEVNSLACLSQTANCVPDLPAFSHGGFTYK
smiles,measurement,setting,value
CN [methylamine],EC50,"[1]; read-out: Apparent EC50, contraction (C), RA",65 ± 48 µM
same,EC50,"[1]; read-out: Apparent EC50, relaxation (R), RA",280 ± 40 µM
same,"[cGMP], LIMA, <50% relaxation subgroup",[2]; vessels with <50% relaxation (n=3),0.067 ± 0.029 pmol/mg
same,"[cGMP], LIMA, >50% relaxation subgroup",[2]; vessels with >50% relaxation (n=6),0.227 ± 0.066 pmol/mg
same,"[cGMP], RSV",[3],0.109 ± 0.030 pmol/mg
same,fatalities after accidental exposure,[4]; 35 persons hospitalized 7-8 hours post-exposure to spilled purified liquid methylamine,6
same,persons with light to deep coma after accidental exposure,[4]; of 35 people,10 of 35
same,Km,[5],247 µM
same,Km,[6],22 µM
same,Km,[7],832 µM
same,"response in HI K+-precontracted LIMA, % of HI K+ tension (contraction)","[8]; 1 mmol/L, 10 min, mean ± SE",1.7±3.9%
same,EC50,[8]; [14],230 ± 30 µM
same,"ACh relaxation after prior exposure, percentage reduction in HI K+ contraction","[8]; LIMA n=7, ACh 1 μM after methylamine 1 mM 10 min (± SEMI 1 mM 15 min) and three PSS bath changes",20 ± 11%
same,"HI K+ contraction after prior exposure, percentage of control norepinephrine contraction","[8]; LIMA n=7, HI K+ 100 mM after methylamine 1 mM 10 min (± SEMI 1 mM 15 min) and three PSS bath changes",102 ± 23%
same,"SNP relaxation after prior exposure, percentage reduction in HI K+ contraction","[8]; LIMA n=7, SNP 100 μM after methylamine 1 mM 10 min (± SEMI 1 mM 15 min) and three PSS bath changes",90 ± 11%
same,methylamine relaxation relative to ACh-induced relaxation,"[8]; LIMA, on average, regardless of order of addition",> 2 times
same,"% Response, contraction (C), LIMA",[8]; mean ± SE,0.6 ± 0.3%
same,"% Response, relaxation (R), LIMA",[8]; mean ± SE,55.4 ± 3.9%
same,"% relaxation, 3rd relaxation","[8]; NE-precontracted LIMA, repeated methylamine exposure, n=1",82.1%
same,"% relaxation, 1st relaxation",[8]; [15],72.0±7.5%
same,"% relaxation, 2nd relaxation",[8]; [15],60.8±12.6%
same,"% reduction of NE-contraction, methylamine post-NE","[8]; NE-precontracted LIMA, 1 mmol/L, 10 min, n=9, mean ± SE",61±5%
same,"% Relaxation, LIMA, <50% relaxation subgroup","[8]; NE-precontracted LIMA, MA 1 mmol/L, 30-40 min, vessels with <50% relaxation (n=3)",34.1 ± 7.1%
same,"% Relaxation, LIMA, >50% relaxation subgroup","[8]; NE-precontracted LIMA, MA 1 mmol/L, 30-40 min, vessels with >50% relaxation (n=6)",87.8 ± 5.0%
same,"Apparent EC50, contraction (C), LIMA","[8]; cumulative concentrations 1-1000 μM, uncontracted and NE-precontracted vessels pooled, mean ± SE",not observed
same,"% reduction of NE-contraction, methylamine pre-NE","[8]; unstimulated LIMA exposed to 1 mmol/L, 10 min, before NE, n=5, mean ± SE",53±7%
"COc1ccc2c(c1)c(CC(=O)O)c(C)n2C(=O)c1ccc(Cl)cc1 [INDO, indomethacin]",effect of pretreatment on MA-induced relaxation,"[8]; NE-precontracted LIMA, 20 min",neither INDO alone (100 μmol/L; 20 min) nor L-NAME+INDO pretreatment affected the MA-induced relaxation
"C=CCN [allylamine, reference compound]",Km,[5],145 µM
"C=O [Formaldehyde, formaldehyde]","response in HI K+-precontracted LIMA, % of HI K+ tension (contraction)","[8]; 1 mmol/L, 10 min, mean ± SE",12.9±2.4%
same,EC50,[8]; [16],315 µM
same,EC50,[8]; [14],315 µM
same,"% Response, contraction (C), LIMA",[8]; mean ± SE,3.7 ± 3.7%
same,"% Response, relaxation (R), LIMA",[8]; mean ± SE,37.3 ± 18.6%
NNC(N)=O [semicarbazide],IC50,[9],16.7 ± 19.5 µM
same,IC50,[10],21.2 ± 11.2 µM
same,IC50,[11],14.7 µM
same,IC50,[12],500 µM
same,mean % reversal of methylamine-induced relaxation,"[8]; NE-precontracted LIMA, within 10 min of addition of 1 mmol/L semicarbazide, n=2",63.0±15.8%
same,effect of pretreatment on methylamine-induced relaxation in LIMA,"[8]; semicarbazide pretreatment 1 mmol/L, 15 min, no effect on NE contraction or ACh relaxation",significantly reduced the methylamine-induced relaxation
"COC(=O)[C@@H](N)CCCNC(=N)N[N+](=O)[O-] [L-NAME, N^ω-nitro-L-arginine methyl ester]",effect of pretreatment on ACh-induced relaxation,"[8]; L-NAME 200 μmol/L, 20 min, subset of LIMA rings with relatively strong ACh relaxation",significantly inhibited the ACh-induced relaxation
same,effect of pretreatment on MA-induced relaxation,"[8]; NE-precontracted LIMA, 20 min",had no effect on MA-induced relaxation
"CC(=O)OCC[N+](C)(C)C [ACh, acetylcholine]","mean relaxation half time (t1/2), NE-precontracted LIMA",[13],1.07 ± 0.122 min
same,"ACh-induced relaxation, ACh added after MA (post-MA ACh)","[8]; NE-precontracted LIMA, ACh 1 μmol/L, n=20, mean ± SE",14±6%
same,"ACh-induced relaxation, ACh added before MA (pre-MA ACh)","[8]; NE-precontracted LIMA, ACh 1 μmol/L, n=21, mean ± SE",25±6%
"OO [H2O2, hydrogen peroxide]","response in HI K+-precontracted LIMA, % of HI K+ tension (contraction)","[8]; 1 mmol/L, 10 min, mean ± SE",21.1±7.7%
same,EC50,[8]; [16],175 ± 58 µM
same,EC50,[8]; [14],162 ± 41 µM
same,"% Response, contraction (C), LIMA",[8]; mean ± SE,15.8 ± 5.3%
same,"% Response, relaxation (R), LIMA",[8]; mean ± SE,55.6 ± 9.0%
